Laboratory results from US7741354B2, “Inhibitors of glutaminyl cyclase” (Probiodrug AG, priority 2006, dated 2010).

Target: hQC (Homo sapiens, UniProt Q16769)
Test: Fluorometric (fluorescent) assay of hQC inhibition, IC50
Assay type: biochemical
Conditions: hQC inhibition; read-out: IC50
Procedure, shortened: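 Two coupled fluorometric formats at 30° C, pH 8.0 Tris/HCl with EDTA: H-Gln-βNA at 0.2 mM read at 320/410 nm, or H-Gln-AMC at varied levels read at 380/460 nm, each started by adding QC.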

Chain of hQC (Q16769 29-361): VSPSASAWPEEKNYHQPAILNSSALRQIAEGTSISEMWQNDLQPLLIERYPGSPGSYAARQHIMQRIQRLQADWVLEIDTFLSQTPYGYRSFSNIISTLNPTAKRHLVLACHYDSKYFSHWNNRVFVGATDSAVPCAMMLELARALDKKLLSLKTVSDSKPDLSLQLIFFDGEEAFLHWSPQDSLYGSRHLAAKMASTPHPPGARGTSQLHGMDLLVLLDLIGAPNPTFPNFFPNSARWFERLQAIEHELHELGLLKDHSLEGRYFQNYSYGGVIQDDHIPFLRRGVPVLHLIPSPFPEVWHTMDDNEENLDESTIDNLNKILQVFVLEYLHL

SMILES | IC50
Brc1cc(Br)cc(C(Nc2ccc3[nH]cnc3c2)c2nnnn2CCC(c2ccccc2)c2ccccc2)c1 (stereo not drawn) [compound 188, (1H-Benzoimidazol-5-yl)-{(3,5-dibromo-phenyl)-[1-(3,3-diphenyl-propyl)-1H-tetrazol-5-yl]-methyl}-amine] | 4 µM
O=[N+]([O-])c1cc(C(Nc2ccc3[nH]cnc3c2)c2nnnn2Cc2ccc(Cl)cc2)ccc1Cl (stereo not drawn) [compound 197, (1H-Benzoimidazol-5-yl)-[[1-(4-chloro-benzyl)-1H-tetrazol-5-yl]-(4-chloro-3-nitro-phenyl)-methyl]-amine] | 2.2 µM
Brc1cc(Br)cc(C(Nc2ccc3[nH]cnc3c2)c2nnnn2-c2ccc(Oc3ccccc3)cc2)c1 (stereo not drawn) [compound 178, (1H-Benzoimidazol-5-yl)-{(3,5-dibromo-phenyl)-[1-(4-phenoxy-phenyl)-1H-tetrazol-5-yl]-methyl}-amine] | 5.8 µM
Brc1cc(Br)cc(C(Nc2ccc3[nH]cnc3c2)c2nnnn2C(c2ccccc2)c2ccccc2)c1 (stereo not drawn) [compound 186, [(1-Benzhydryl-1H-tetrazol-5-yl)-(3,5-dibromo-phenyl)-methyl]-(1H-benzoimidazol-5-yl)-amine] | 5.8 µM
c1ccc(-c2ccc(C(Nc3ccc4[nH]cnc4c3)c3nnnn3CCc3cccs3)cc2)nc1 (stereo not drawn) [compound 211, (1H-Benzoimidazol-5-yl)-{(4-pyridin-2-yl-phenyl)-[1-(2-thiophen-2-yl-ethyl)-1H-tetrazol-5-yl]-methyl}-amine] | 2.2 µM
Clc1ccc(C(Nc2ccc3[nH]cnc3c2)c2nnnn2Cc2ccccc2Cl)cc1 (stereo not drawn) [compound 127, (1H-Benzoimidazol-5-yl)-[[1-(2-chloro-benzyl)-1H-tetrazol-5-yl]-(4-chloro-phenyl)-methyl]-amine] | 3.1 µM

The remaining lines, values ahead:

IC50 | SMILES
4 µM | Fc1cc(C(Nc2ccc3[nH]cnc3c2)c2nnnn2CCc2cccs2)ccc1Cl (stereo not drawn) [compound 207, (1H-Benzoimidazol-5-yl)-{(4-chloro-3-fluoro-phenyl)-[1-(2-thiophen-2-yl-ethyl)-1H-tetrazol-5-yl]-methyl}-amine]
4 µM | CCCOc1cccc(C(Nc2ccc3[nH]cnc3c2)c2nnnn2CC2CCCO2)c1 (stereo not drawn) [compound 141, (1H-Benzoimidazol-5-yl)-{(3-propoxy-phenyl)-[1-(tetrahydro-furan-2-ylmethyl)-1H-tetrazol-5-yl]-methyl}-amine]
5.8 µM | O=C1CCCN1CCCn1nnnc1C(Nc1ccc2[nH]cnc2c1)c1cc(Br)cc(Br)c1 (stereo not drawn) [compound 176, 1-(3-{5-[(1H-Benzoimidazol-5-ylamino)-(3,5-dibromo-phenyl)-methyl]-tetrazol-1-yl}-propyl)-pyrrolidin-2-one]
2.2 µM | CC(C)(C)OC(=O)Cn1nnnc1C(Nc1ccc2[nH]cnc2c1)c1ccc2c(c1)OCO2 (stereo not drawn) [compound 119, {5-[Benzo[1,3]dioxol-5-yl-(1H-benzoimidazol-5-ylamino)-methyl]-tetrazol-1-yl}-acetic acid tert-butyl ester]
2.2 µM | CCCOc1cccc(C(Nc2ccc3[nH]cnc3c2)c2nnnn2C2CCCCC2C(=O)OCC)c1 (stereo not drawn) [compound 208]
5.8 µM | COC(=O)c1cccc(C(Nc2ccc3[nH]cnc3c2)c2nnnn2CC2CCCO2)c1 (stereo not drawn) [compound 154, 3-{(1H-Benzoimidazol-5-ylamino)-[1-(tetrahydro-furan-2-ylmethyl)-1H-tetrazol-5-yl]-methyl}-benzoic acid methyl ester]
4.9 µM | CCc1ccc(C(Nc2ccc3[nH]cnc3c2)c2nnnn2C2CCCCC2)cc1 (stereo not drawn) [compound 198, (1H-Benzoimidazol-5-yl)-[(1-cyclohexyl-1H-tetrazol-5-yl)-(4-ethyl-phenyl)-methyl]-amine]
8.5 µM | CCOC(=O)C1CCCCC1n1nnnc1C(Nc1ccc2[nH]cnc2c1)c1ccc(OC)c(F)c1 (stereo not drawn) [compound 132, 2-{5-[(1H-Benzoimidazol-5-ylamino)-(3-fluoro-4-methoxy-phenyl)-methyl]-tetrazol-1-yl}-cyclohexanecar-boxylic acid ethyl ester]
8.5 µM | C1=CCC(C(Nc2ccc3[nH]cnc3c2)c2nnnn2CCc2cccs2)CC1 (stereo not drawn) [compound 167, (1H-Benzoimidazol-5-yl)-{cyclohex-3-enyl-[1-(2-thiophen-2-yl-ethyl)-1H-tetrazol-5-yl]-methyl}-amine]
5.8 µM | CCOC(=O)C1CCCCC1n1nnnc1C(Nc1ccc2[nH]cnc2c1)c1cc(C)cc(C)c1 (stereo not drawn) [compound 157]
5.8 µM | CCOC(=O)C1CCCCC1n1nnnc1C(Nc1ccc2[nH]cnc2c1)c1cccc(C(=O)OC)c1 (stereo not drawn) [compound 195, 3-{(1H-Benzoimidazol-5-ylamino)-[1-(2-ethoxycarbonyl-cyclohexyl)-1H-tetrazol-5-yl]-methyl}-benzoic acid methyl ester]

Same assay, conditions: read-out: IC50

SMILES | IC50
c1ccc2oc(C(NCCCn3ccnc3)c3nnnn3C[C@@H]3CCCO3)cc2c1 (stereo partly drawn) [compound 15, (Benzofuran-2-yl-{1-[(S)-1-(tetrahydro-furan-2-yl)methyl]-1H-tetrazol-5-yl}-methyl)-(3-imidazol-1-yl-propyl)-amine] | 6.7 µM
c1cn(CCCNC(c2ccc3[nH]ccc3c2)c2nnnn2C2CCCC2)cn1 (stereo not drawn) [compound 26] | 3.1 µM
CCCCn1nnnc1C(NCCCn1ccnc1)c1ccc2[nH]ccc2c1 (stereo not drawn) [compound 21, [(1-Butyl-1H-tetrazol-5-yl)-(1H-indol-5-yl)-methyl]-(3-imidazol-1-yl-propyl)-amine] | 6.7 µM
CC(C)(C)n1nnnc1C(NCCCn1ccnc1)c1ccc2cccc(O)c2n1 (stereo not drawn) [compound 60, 2-[(1-tert-Butyl-1H-tetrazol-5-yl)-(3-imidazol-1-yl-propylamino)-methyl]-quinolin-8-ol] | 0.4 µM
Cn1nnnc1C(NCCCn1ccnc1)c1ccc2ccccc2n1 (stereo not drawn) [compound 31, (3-Imidazol-1-yl-propyl)-[(1-methyl-1H-tetrazol-5-yl)-quinolin-2-yl-methyl]-amine] | 4.9 µM
COC(=O)Cn1nnnc1C1(NCCCn2ccnc2)CCC1 [compound 49, {5-[1-(3-Imidazol-1-yl-propylamino)-cyclobutyl]-tetrazol-1-yl}-acetic methyl ester] | 0.4 µM
CCCCn1nnnc1C(NCCCn1ccnc1)c1cc(C)c(C)cc1C (stereo not drawn) [compound 24, [(1-Butyl-1H-tetrazol-5-yl)-(2,4,5-trimethyl-phenyl)-methy]-(3-imidazol-1-yl-propyl)-amine] | 4.9 µM
COC(=O)Cn1nnnc1C(NCCCn1ccnc1)c1ccc2[nH]ccc2c1 (stereo not drawn) [compound 54, {5-[(3-Imidazol-1-yl-propylamino)-(1H-indol-5-yl)-methyl]-tetrazol-1-yl}-acetic methyl ester] | 5.8 µM
c1ccc(C(c2ccccc2)n2nnnc2C(Nc2ccc3[nH]cnc3c2)c2ccc3nsnc3c2)cc1 (stereo not drawn) [compound 112, [(1-Benzhydryl-1H-tetrazol-5-yl)-benzo[c][1,2,5]thia-diazol-5-yl-methyl]-(1H-benzoimidazol-5-yl)-amine] | 5.8 µM
Cc1ccc(C(NCCCn2ccnc2)c2nnnn2Cc2ccc(Cl)cc2)cc1C (stereo not drawn) [compound 2, [[1-(4-Chloro-benzyl)-1H-tetrazol-5-yl]-(3,4-dimethyl-phenyl)-methyl]-(3-imidazol-1-yl-propyl)-amine] | 6.7 µM
Cc1ccc2c(C(NCCCn3ccnc3)c3nnnn3C[C@@H]3CCCO3)c[nH]c2c1 (stereo partly drawn) [compound 16, (3-Imidazol-1-yl-propyl)-((6-methyl-1H-indol-3-yl)-{1-[(S)-1-(tetrahydro-furan-2-yl)methyl]-1H-tetrazol-5-yl}-methyl)-amine] | 7.6 µM
C1=COC(C(Nc2ccc3[nH]cnc3c2)c2nnnn2C2CCCCC2)CC1 (stereo not drawn) [compound 114] | 6.7 µM
COC(=O)Cn1nnnc1C(NCCCn1ccnc1)c1ccc2cccc(O)c2n1 (stereo not drawn) [compound 52] | 4.9 µM
Fc1ccc2c(C(Nc3ccc4[nH]cnc4c3)c3nnnn3C3CCCCC3)c[nH]c2c1 (stereo not drawn) [compound 81, (1H-Benzoimidazol-5-yl)-[(1-cyclohexyl-1H-tetrazol-5-yl)-(6-fluoro-1H-indol-3-yl)-methyl]-amine] | 3.1 µM
COC(=O)Cn1nnnc1C(NCCCn1ccnc1)C1CC1 (stereo not drawn) [compound 57, {5-[Cyclopropyl-(3-imidazol-1-yl-propylamino)-methyl]-tetrazol-1-yl}-acetic methyl ester] | 0.4 µM

Next, values leading:

IC50 | SMILES
9.4 µM | CCOC(=O)C1CCCCC1n1nnnc1C(Nc1ccc2[nH]cnc2c1)c1ccc(Cl)cc1 (stereo not drawn) [compound 94]
5.8 µM | CCCC(Nc1ccc2[nH]cnc2c1)c1nnnn1Cc1ccccc1 (stereo not drawn) [compound 110, (1H-Benzoimidazol-5-yl)-[1-(1-benzyl-1H-tetrazol-5-yl)-butyl]-amine]
4.9 µM | Cc1ccc(C(Nc2ccc3[nH]cnc3c2)c2nnnn2CC2CCCO2)cc1C (stereo not drawn) [compound 83, (1H-Benzoimidazol-5-yl)-{(3,4-dimethyl-phenyl)-[1-(tetrahydro-furan-2-ylmethyl)-1H-tetrazol-5-yl]-methyl}-amine]
1.3 µM | COC(=O)c1cccc(C(Nc2ccc3[nH]cnc3c2)c2nnnn2Cc2ccc(Cl)cc2)c1 (stereo not drawn) [compound 85, 3-{(1H-Benzoimidazol-5-ylamino)-[1-(4-chloro-benzyl)-1H-tetrazol-5-yl]-methyl}-benzoic acid methyl ester]
7.6 µM | CC(c1ccccc1)C(Nc1ccc2[nH]cnc2c1)c1nnnn1CC1CCCO1 (stereo not drawn) [compound 100, (1H-Benzoimidazol-5-yl)-{2-phenyl-1-[1-(tetrahydro-furan-2-ylmethyl)-1H-tetrazol-5-yl]-propyl}-amine]
3.1 µM | c1ccc(-c2ccc(C(Nc3ccc4[nH]cnc4c3)c3nnnn3CC3CCCO3)cc2)nc1 (stereo not drawn) [compound 76, (1H-Benzoimidazol-5-yl)-{(4-pyridin-2-yl-phenyl)-[1-(tetrahydro-furan-2-ylmethyl)-1H-tetrazol-5-yl]-methyl}-amine]
6.7 µM | c1cn(CCCNC(c2ccc3[nH]ccc3c2)c2nnnn2C[C@@H]2CCCO2)cn1 (stereo partly drawn) [compound 13, (3-Imidazol-1-yl-propyl)-((1H-indol-5-yl)-{1-[(S)-1-(tetrahydro-furan-2-yl)methyl]-1H-tetrazol-5-yl}-methyl)-amine]
